Assay results as given in paper PMC6943423, “Structure-Activity Study of an All-D Antimicrobial Octapeptide D2D” (Molecules, 2019).
Square brackets hold non-standard residues; d marks the D form. Peptide text beside a SMILES is read from it. d1Nal = N[C@H](Cc1cccc2ccccc12)C(=O)O; dNle = CCCC[C@@H](N)C(=O)O; dDap = NC[C@@H](N)C(=O)O

Tests used:
[1] = tested on: human red blood cells; assay: Hemolytic activity; format: cell-based; details: red cells of human, 1 h, 150
Experimental: The percentage of hemolysis at 150 μM was determined for all compounds as previously described. Briefly, two-fold serial dilutions (2.35 to 150 μM) of compounds in PBS were mixed with a 0.5% v/v suspension of fresh human red blood cells (RBC) in the same buffer. After 1 h incubation at 37 °C, plates were centrifuged and aliquots of the supernatants were transferred to clear ELISA plates. Absorbance at 414 nm was determined and normalised with respect to a negative (PBS, 0%) and positive (melittin, 100%) control.

[2] = Peptide self-assembly nanostructure in solution by SAXS; format: physicochemical; details: for nanostructure in solution (self-assembly, SAXS model): lab SAXS, 50 mM Tris buffer pH 7.4, 2.5–10 mg/mL, ambient temperature; as to cross section of the nanotubes: values in Å
Experimental: SAXS experiments of D2D and the alanine-scan (compounds 1–8) were performed using a Bruker NANOSTAR equipped with a microfocus X-ray source (IμS Cu, InCoatec, Germany) and a VÅNTEC-2000 detector. Raw scattering data was calibrated to absolute intensity scale using water as a primary standard and radially averaged in order to obtain the 1D scattered intensity profile as a function of the scattering vector q (q = 4 π sin (θ/2)/λ), where θ is the scattering angle and λ is the X-ray wavelength of 1.54 Å. The samples were dissolved in 50 mM Tris buffer, pH 7.4 (10 mg/mL, 5 mg/mL and 2.5 mg/mL) and injected manually into a temperature-controlled quartz cell located in a vacuum chamber and measured for 180 min.
The scattering of the peptide D2D was analysed using a random polymer-like chain model:(1) Ichain(q)=ϕ·Vp·Δρ^2·Pchain(q) where ϕ is the volume fraction of the peptide, Vp is the volume of the polymer, Δρ is the excess scattering length density and Pchain(q) is the form factor of the free peptide chains given by the Debye expression for Gaussian chains:(2) gPchain(q)=2·exp[−(qRg)^2]−1+(qRg)^2/(qRg)^4 where Rg is the radius gyration of the peptide chains.
The scattering for compounds 2 and 7 was analysed using a rectangular sheet like model:(3) Isheet(q)=ϕ·Vp·Δρ^2·Np·Psheet(q)
Under the assumption that the length of the peptide sheets are much greater than the lateral dimension, i.e., c >> a, b, the form factor Psheet(q) is given by (4) Psheet(q)=Fc(q)1/2π∫02πAsheet(q, α)^2dα where the amplitude is given by (5) Asheet(q,α)=sin(qb cos(α)/2)/qb cos(α)/2· sin(qa sin(α)/2) /qa sin(α)/2) and (6) Fc(q)=(2 Si(qc)/(qc)−4 sin^2(qc/2)/(qc)^2 where Si(x)=∫0xt^−1sint dt .
The expression for the absolute scattering intensity, from this structure can be written as:(7) Inanotube(q)=ϕ·P·Vtot·Δρ^2·P(q)L·A(q)cs2·DW(q) where ϕ is the volume fraction of the peptide, P is the aggregation number given by P π(Ro2−Ri2)L/Vp where Vp is the volume of a peptide chain, Ro is the outer radius and Ri is the inner radius of the tubes, and L is the length. A(q)cs2 is given by:(8) A(q)cs2=Ro2A(q,Rc)−Rin2A(q,Ri)/(Ro2−Ri2) where A(q,x)=2J1(q·x)/(q·x) and J1(x) is the first order Bessel function.
The longitudinal form factor P(q)L is given by:(9) P(q)L=2 Si(QL)/QL −4 sin(sin^2(QL/2)/(QL)^2 where L is the length of the nanotubes and Si(x) is the Sine-function.
In addition, we introduced a slight distribution in the inner radius for possible shape fluctuations, and a Debye Waller factor, DW(q) = exp(−q^2 σ^2), describing possible surface roughness of the inner and outer wall.

Compound	nanostructure in solution (self-assembly, SAXS model) [2]	cross section of the nanotubes ([2]; SAXS nanotube model fit, 50 mM Tris pH 7.4) [Å]	%H (% Hemolysis at 150 µM) [1] [%]
CCCC[C@@H](NC(=O)[C@@H](CCCCN)NC(=O)[C@@H](Cc1cccc2ccccc12)NC(=O)[C@@H](CCCCN)NC(=O)[C@@H](Cc1ccccc1)NC(=O)[C@@H](Cc1cccc2ccccc12)NC(=O)[C@@H](C)NC(=O)[C@H](N)CCCCN)C(N)=O [Compound 2, ka(1-nal)fk(1-nal)k(nle)-NH2] (H-[dK][dA][d1Nal][dF][dK][d1Nal][dK][dNle]-NH2)	larger filament like structures	14	59
CCCC[C@@H](NC(=O)[C@@H](CCCCN)NC(=O)[C@@H](Cc1cccc2ccccc12)NC(=O)[C@@H](CCCCN)NC(=O)[C@@H](Cc1ccccc1)NC(=O)[C@@H](Cc1cccc2ccccc12)NC(=O)[C@@H](CCCCN)NC(=O)[C@@H](C)N)C(N)=O [Compound 1, ak(1-nal)fk(1-nal)k(nle)-NH2] (H-[dA][dK][d1Nal][dF][dK][d1Nal][dK][dNle]-NH2)	random polymer-like chains		41
CCCC[C@@H](NC(=O)[C@@H](Cc1cccc2ccccc12)NC(=O)[C@@H](CCCCN)NC(=O)[C@@H](CCCCN)NC(=O)[C@@H](Cc1ccccc1)NC(=O)[C@@H](Cc1cccc2ccccc12)NC(=O)[C@@H](CCCCN)NC(=O)[C@H](N)CCCCN)C(N)=O [Compound 25, kk(1-nal)fkk(1-nal)(nle)-NH2] (H-[dK][dK][d1Nal][dF][dK][dK][d1Nal][dNle]-NH2)			50
CCCC[C@@H](NC(=O)[C@@H](CCCCN)NC(=O)[C@@H](Cc1cccc2ccccc12)NC(=O)[C@@H](CN)NC(=O)[C@@H](Cc1ccccc1)NC(=O)[C@@H](Cc1cccc2ccccc12)NC(=O)[C@@H](CCCCN)NC(=O)[C@H](N)CCCCN)C(N)=O [Compound 10, kk(1-nal)f(dap)(1-nal)k(nle)-NH2] (H-[dK][dK][d1Nal][dF][dDap][d1Nal][dK][dNle]-NH2; N-terminus assumed)			28
NCCCC[C@@H](N)C(=O)N[C@H](CCCCN)C(=O)N[C@H](Cc1cccc2ccccc12)C(=O)N[C@H](Cc1ccccc1)C(=O)N[C@H](CCCCN)C(=O)N[C@H](Cc1cccc2ccccc12)C(N)=O [Compound 31, kk(1-nal)fk(1-nal)-NH2] (HELM PEPTIDE1{[dK].[dK].[O=C([C@@H](Cc1cccc2ccccc12)N[*:1])[*:2]].[dF].[dK].[O=C([C@@H](Cc1cccc2ccccc12)N[*:1])[*:2]].[am]}$$$$V2.0; N-terminus assumed)			20
CCCC[C@@H](NC(=O)[C@@H](Cc1ccc(O)cc1)NC(=O)[C@@H](Cc1cccc2ccccc12)NC(=O)[C@@H](CCCCN)NC(=O)[C@@H](Cc1ccccc1)NC(=O)[C@@H](Cc1cccc2ccccc12)NC(=O)[C@@H](CCCCN)NC(=O)[C@H](N)CCCCN)C(N)=O [Compound 23, kk(1-nal)fk(1-nal)y(nle)-NH2] (H-[dK][dK][d1Nal][dF][dK][d1Nal][dY][dNle]-NH2; N-terminus assumed)			74
CCCC[C@@H](NC(=O)[C@@H](CCCCN)NC(=O)[C@@H](Cc1cccc2ccccc12)NC(=O)[C@@H](CCCNC(=N)N)NC(=O)[C@@H](Cc1ccccc1)NC(=O)[C@@H](Cc1cccc2ccccc12)NC(=O)[C@@H](CCCCN)NC(=O)[C@H](N)CCCCN)C(N)=O [Compound 35, kk(1-nal)fr(1-nal)k(nle)-NH2] (H-[dK][dK][d1Nal][dF][dR][d1Nal][dK][dNle]-NH2; N-terminus assumed)			49

The next lines start with results.

nanostructure in solution (self-assembly, SAXS model) [2]	cross section of the nanotubes ([2]; SAXS nanotube model fit, 50 mM Tris pH 7.4) [Å]	Compound	%H (% Hemolysis at 150 µM) [1] [%]
larger filament like structures		CCCC[C@@H](NC(=O)[C@@H](C)NC(=O)[C@@H](Cc1cccc2ccccc12)NC(=O)[C@@H](CCCCN)NC(=O)[C@@H](Cc1ccccc1)NC(=O)[C@@H](Cc1cccc2ccccc12)NC(=O)[C@@H](CCCCN)NC(=O)[C@H](N)CCCCN)C(N)=O [Compound 7, kk(1-nal)fk(1-nal)a(nle)-NH2] (H-[dK][dK][d1Nal][dF][dK][d1Nal][dA][dNle]-NH2)	67
random polymer-like chains		CCCC[C@@H](NC(=O)[C@@H](CCCCN)NC(=O)[C@@H](C)NC(=O)[C@@H](CCCCN)NC(=O)[C@@H](Cc1ccccc1)NC(=O)[C@@H](Cc1cccc2ccccc12)NC(=O)[C@@H](CCCCN)NC(=O)[C@H](N)CCCCN)C(N)=O [Compound 6, kk(1-nal)fkak(nle)-NH2] (HELM PEPTIDE1{[dK].[dK].[O=C([C@@H](Cc1cccc2ccccc12)N[*:1])[*:2]].[dF].[dK].[dA].[dK].[CCCC[C@@H](N[*:1])C(=O)[*:2]].[am]}$$$$V2.0; N-terminus assumed)	10
random polymer-like chains		CCCC[C@@H](NC(=O)[C@@H](CCCCN)NC(=O)[C@@H](Cc1cccc2ccccc12)NC(=O)[C@@H](CCCCN)NC(=O)[C@@H](C)NC(=O)[C@@H](Cc1cccc2ccccc12)NC(=O)[C@@H](CCCCN)NC(=O)[C@H](N)CCCCN)C(N)=O [Compound 4, kk(1-nal)ak(1-nal)k(nle)-NH2] (H-[dK][dK][d1Nal][dA][dK][d1Nal][dK][dNle]-NH2; N-terminus assumed)	22
random polymer-like chains		C[C@@H](NC(=O)[C@@H](CCCCN)NC(=O)[C@@H](Cc1cccc2ccccc12)NC(=O)[C@@H](CCCCN)NC(=O)[C@@H](Cc1ccccc1)NC(=O)[C@@H](Cc1cccc2ccccc12)NC(=O)[C@@H](CCCCN)NC(=O)[C@H](N)CCCCN)C(N)=O [Compound 8, kk(1-nal)fk(1-nal)ka-NH2] (HELM PEPTIDE1{[dK].[dK].[O=C([C@@H](Cc1cccc2ccccc12)N[*:1])[*:2]].[dF].[dK].[O=C([C@@H](Cc1cccc2ccccc12)N[*:1])[*:2]].[dK].[dA].[am]}$$$$V2.0; N-terminus assumed)	5
random polymer-like chains		CCCC[C@@H](NC(=O)[C@@H](CCCCN)NC(=O)[C@@H](Cc1cccc2ccccc12)NC(=O)[C@@H](CCCCN)NC(=O)[C@@H](Cc1ccccc1)NC(=O)[C@@H](C)NC(=O)[C@@H](CCCCN)NC(=O)[C@H](N)CCCCN)C(N)=O [Compound 3, kkafk(1-nal)k(nle)-NH2] (HELM PEPTIDE1{[dK].[dK].[dA].[dF].[dK].[O=C([C@@H](Cc1cccc2ccccc12)N[*:1])[*:2]].[dK].[CCCC[C@@H](N[*:1])C(=O)[*:2]].[am]}$$$$V2.0)	2
